Measured values: patent publication US8129383B2, “Aminopterin dosage forms and methods for inflammatory disorders” (Aminopterin LLC, priority 2005, dated 2012)

How the values were obtained:
[1] = tested on: neutrophils that accumulated in the carrageenan-treated air pouches
Experimental: J. Clin. Invest., 1993. 92(6):2675-82].
A separate group of 5 animals was given vehicle by ip injection on the same days (0.9% saline, control, n=5). On day 16, air pouches were induced on the animals by injecting 3 ml of air subcutaneously on the back. On day 22 (i.e. one day after the last dose of drug or vehicle), inflammation was induced by injection of 1 ml of a suspension of carrageenan (2% weight/volume in calcium- and magnesium-free PBS). The mice were put back in their cages and allowed to run free for 4 hours. […] After 4 hours, the animals were sacrificed, the pouches flushed with 2 ml of PBS and the exudates harvested. Aliquots were diluted 1:1 with methylene blue (0.01% w/v in PBS), and the cells were counted.

psoriasis = conditions: 329 patients, schedules of the 1955 study; cited from earlier work
adjuvant arthritis = conditions: cumulative weekly doses of 0.12 mg/kg; cited from earlier work
[2] = tested on: carrageenan-induced inflammation in air pouches; assay: duration of efficacy in the murine air-pouch model after cessation of 4 weeks of dosing; type: in vivo, mice; conditions: aminopterin 0.05 mg/kg, methotrexate 1.0 mg/kg
Experimental: We therefore examined the rate at which anti-inflammatory activity was lost in the air-pouch model after the cessation of 4 weeks of dosing at the maximally efficacious dose (FIG. 2).
On day 25 the air pouches were re-inflated with 1.5 ml of air. Pouches were re-inflated as needed to maintain them.

[3] = target: T1, dihydrofolate reductase (DHFR) in the liver (Mus musculus, UniProt P00375); assay: free DHFR in liver by 3H-MTX binding after weekly dosing; type: in vivo, mice
T1 construct: from tissue; host or cells: liver (homogenate supernatant) of dosed mice
T1 sequence (P00375 1-187): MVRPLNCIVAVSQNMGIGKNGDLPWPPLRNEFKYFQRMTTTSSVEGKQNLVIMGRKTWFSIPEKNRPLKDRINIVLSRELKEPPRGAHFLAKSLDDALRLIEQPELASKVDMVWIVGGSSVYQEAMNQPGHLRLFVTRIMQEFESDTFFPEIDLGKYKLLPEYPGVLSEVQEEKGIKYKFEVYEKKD
Experimental: The animals that were treated in Example 1 were further analyzed with respect to the free dihydrofolate reductase (DHFR) available in their livers (i.e., amount of DHFR unbound, or not inhibited by either AMT or MTX) (FIG. 6). The following procedure was used. Portions of frozen liver were weighed and homogenized in three volumes of assay buffer (10 mM KPO4, 150 mM KCl, 1 mg/ml charcoal-treated BSA, 0.1 mg/ml NADPH, pH 7.5) on ice. After centrifugation for 30 min at 16000×G at 4° C., tissue extract was assayed for free DHFR by binding of 3H-MTX. Three serial 1:2 dilutions were made in assay buffer (total 100 μl/tube), starting with 10 μl extract for control samples (+190 μl buffer) or 100 μl for antifolate-treated samples. Approximately 2 pmoles of 3H-MTX (˜100,000 dpms) in 100 μl buffer was added to each tube and mixed by addition of another 100 μl buffer and agitation. After 30 mins on ice, unbound 3H-MTX was removed by addition of 200 μl dextran-coated activated charcoal (2.5% activated charcoal and 0.5% dextran MW 10,000) and centrifugation. Radioactivity in the supernatant (=bound 3H-MTX) was counted after careful removal from the charcoal pellet and addition of Ultima Gold scintillation fluid. A charcoal “blank” consisting of buffer, 3H-MTX and charcoal was subtracted from each value. Results were calculated by averaging the dpms bound/100 μl of the three dilutions, converting to picomoles MTX (specific activity 49,000 dpms/picomole, determined by competitive radioligand assay), and multiplying by 30 to give picomoles/gm tissue.

[4] = tested on: chronic progressive multiple sclerosis; assay: randomized, placebo-controlled clinical trial in chronic progressive multiple sclerosis; type: in vivo, human
Experimental: A prophetic randomized, double-blinded, placebo-controlled, clinical trial of low-dose, weekly, oral aminopterin is performed in 60 patients with clinically definite chronic progressive multiple sclerosis (MS) attending a referral-based outpatient MS clinic. Study patients are 21 to 60 years old with a disease duration of longer than 1 year. Patients' Expanded Disability Status Scale scores were 3.0 to 6.5 (ambulatory with moderate disability). Patients are first stratified by Expanded Disability Status Scale scores, 3.0 to 5.5 and 6.0 to 6.5, and then were randomized to receive aminopterin or placebo treatment. Treatment consists of weekly, oral, low-dose (1.0-2.0 mg) aminopterin or placebo for 2 years, followed by observation for as long as 1 year. A composite outcome measurement instrument is used and consists of (1) Expanded Disability Status Scale (EDSS), (2) ambulation index, (3) Box and Block Test, and (4) 9-Hole Peg Test. Failure of therapy is indicated by a designated change that is sustained for more than 2 months in one or more components of this composite measure.

active and passive EAE = assay: rat EAE animal model of multiple sclerosis; type: in vivo
Experimental: Using the rat EAE animal model of multiple sclerosis, a series of prophetic studies are performed wherein aminopterin is given to animals using both active and passive protocols for inducing EAE (Burton, Agents and Actions (1989) 27 (3/4): 351-355). In the active protocol, animals are intradermally injected with myelin basic protein (MBP), Freund's adjuvant and mycobacteria, whereas in the passive protocol separate donor rats are immunized actively and then 10-12 days after active immunization, donor splenocytes are collected and stimulated […] with MBP for 3 days, then 1−2×10^8 leukocytes injected iv into each irradiated (600 rads) recipient rat. Aminopterin at doses of 0.0005, 0.001, 0.002, 0.005, 0.008, 0.010, 0.050, 0.1 and 0.5 mg/kg are administered ip on the day after active or passive sensitization.

[5] = tested on: antigen-induced arthritis; conditions: cumulative weekly doses of >1.5 mg/kg; cited from earlier work
formaldehyde arthritis = conditions: cumulative weekly doses of 0.3 mg/kg; cited from earlier work
[6] = tested on: rheumatoid arthritis, psoriatic arthritis, uncomplicated psoriasis, and atopic dermatitis; conditions: 0.75-2 mg/day for approximately 1 week and greater; cited from earlier work

## Nc1nc(N)c2nc(CNc3ccc(C(=O)N[C@@H](CCC(=O)O)C(=O)O)cc3)cnc2n1 [aminopterin, 4-amino-pteroyl-L-glutamic acid]
[1]; ratio of EC50s, P<0.001
  potency relative to methotrexate: 43 fold
[1]; weekly ip doses, aminopterin 0.0005-0.050 mg/kg, methotrexate 0.01-1.00 mg/kg
  signs of toxicity at the end of the dosing period: no signs of toxicity
[1]; weekly ip injection days 1, 7, 14, 21, carrageenan day 22, exudate after 4 hours
  EC50 for diminishing the number of neutrophils accumulated in carrageenan-treated air pouches: 0.0009 mg/kg/wk
psoriasis
  overall incidence of toxicity: 21%
Adjuvant arthritis
  efficacy: demonstrated the efficacy
  toxicity: severe toxicity
[2]; 8, 12 or 22 days after last of 4 weekly ip doses
  difference between aminopterin and methotrexate in rate of recovery of inflammation: no statistically significant difference
[2]; after last of 4 weekly ip doses
  duration of action: quite long
[3]; 1 day after the last of 4 sequential weekly doses
  available DHFR in the liver bound (inhibited): about 95%
[3]; 8 d after the last of 4 weekly doses
  available DHFR in the liver bound (inhibited): about 83%
[3]; 22 d after the last of 4 weekly doses
  available DHFR in the liver bound (inhibited): about 70%
[4]; weekly oral 1.0-2.0 mg for 2 years
  toxicity in the treatment group: absence of clinically significant toxicity
[4]; weekly oral 1.0-2.0 mg for 2 years vs placebo
  progression of impairment (EDSS, ambulation index, Box and Block Test, 9-Hole Peg Test or composite): Significantly less progression of impairment
Active and passive EAE; active or passive EAE
  persistence of inhibition after the single dose: up to 14 days
Active and passive EAE; sensitized actively or passively
  dose-response over the range of doses: clear dose-response
Active and passive EAE; single ip dose (0.0005-0.5 mg/kg) day after active sensitization, one or more of the doses
  inhibition of the onset of active EAE: greater than 80%
Active and passive EAE; single ip dose (0.0005-0.5 mg/kg) day after passive sensitization, one or more of the doses
  inhibition of the onset of passive EAE: greater than 80%
[5]
  efficacy: demonstrated the efficacy
  toxicity: severe toxicity
Formaldehyde arthritis
  efficacy: demonstrated the efficacy
[6]
  toxic reactions: the majority of patients developed toxic reactions
